# Data as given in US10485235B2, “Aryloxypyrimidinyl ethers as herbicides” (FMC Corporation, priority 2015, dated 2019).
# Assays:
# Format in all cases: in vivo
# rice (Oryza sativa) = assay: Test B flooded paddy test, rice; conditions: 250 g ai/ha, Flood; visual rating after 13 to 15 days; scale 0 to 100, 0 is no effect, 100 is complete control
# Outline: (§1)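 Plants grown to 2-leaf stage, pots flooded to 3 cm above soil and compound applied directly to paddy water, depth maintained throughout. After 13-15 days in greenhouse, visual rating against untreated controls on 0-100 scale (0 no effect, 100 complete control).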
# [1] = test system: foxtail, giant (giant foxtail, Setaria faberii); assay: Test A preemergence, giant foxtail; conditions: Preemergence, 0 to 100 scale (0 no effect, 100 complete control)
# Outline: (§2)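 Compounds, formulated in a surfactant-containing solvent mixture that is non-phytotoxic, are sprayed onto soil after seeding (preemergence) or onto young plants, one to two leaves and 2 to 10 cm high (postemergence). Response is scored visually after around 10 days, where 0 means no effect and 100 means complete control.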
# [2] = test system: ragweed (common ragweed, Ambrosia elatior); assay: Test A preemergence, ragweed; conditions: Preemergence, 0 to 100 scale (0 no effect, 100 complete control)
# Outline: as §2
# [3] = test system: pigweed (Amaranthus retroflexus); assay: Test A preemergence, pigweed; conditions: Preemergence, 0 to 100 scale (0 no effect, 100 complete control)
# Outline: as §2
# corn (Zea mays) = assay: Test A postemergence, corn; conditions: postemergence, 0 to 100 scale, 0 is no effect, 100 is complete control, approximately 10 days
# Outline: as §2
# [4] = test system: ryegrass, Italian (Italian ryegrass, Lolium multiflorum); assay: Test A preemergence, Italian ryegrass; conditions: Preemergence, 0 to 100 scale (0 no effect, 100 complete control)
# Outline: as §2
# [5] = test system: ryegrass, Italian (Italian ryegrass, Lolium multiflorum); assay: Test A postemergence, Italian ryegrass; conditions: postemergence, 0 to 100 scale, 0 is no effect, 100 is complete control, approximately 10 days
# Outline: as §2
# [6] = test system: ragweed (common ragweed, Ambrosia elatior); assay: Test A postemergence, ragweed; conditions: postemergence, 0 to 100 scale, 0 is no effect, 100 is complete control, approximately 10 days
# Outline: as §2
# kochia (Kochia scoparia) [7] = assay: Test A preemergence, kochia; conditions: Preemergence, 0 to 100 scale (0 no effect, 100 complete control)
# Outline: as §2
# [8] = test system: barnyardgrass (Echinochloa crus-galli); assay: Test A preemergence, barnyardgrass; conditions: Preemergence, 0 to 100 scale (0 no effect, 100 complete control)
# Outline: as §2
# [9] = test system: wheat (Triticum aestivum); assay: Test A postemergence, wheat; conditions: postemergence, 0 to 100 scale, 0 is no effect, 100 is complete control, approximately 10 days
# Outline: as §2
# kochia (Kochia scoparia) [10] = assay: Test A postemergence, kochia; conditions: postemergence, 0 to 100 scale, 0 is no effect, 100 is complete control, approximately 10 days
# Outline: as §2
# [11] = test system: foxtail, giant (giant foxtail, Setaria faberii); assay: Test A postemergence, giant foxtail; conditions: postemergence, 0 to 100 scale, 0 is no effect, 100 is complete control, approximately 10 days
# Outline: as §2
# [12] = test system: sedge, umbrella (small-flower umbrella sedge, Cyperus difformis); assay: Test B flooded paddy test, umbrella sedge; conditions: 250 g ai/ha, Flood; visual rating after 13 to 15 days; scale 0 to 100, 0 is no effect, 100 is complete control
# Outline: as §1
# [13] = test system: ducksalad (Heteranthera limosa); assay: Test B flooded paddy test, ducksalad; conditions: 250 g ai/ha, Flood; visual rating after 13 to 15 days; scale 0 to 100, 0 is no effect, 100 is complete control
# Outline: as §1
# [14] = test system: barnyardgrass (Echinochloa crus-galli); assay: Test B flooded paddy test, barnyardgrass; conditions: 250 g ai/ha, Flood; visual rating after 13 to 15 days; scale 0 to 100, 0 is no effect, 100 is complete control
# Outline: as §1
# [15] = test system: blackgrass (Alopecurus myosuroides); assay: Test A postemergence, blackgrass; conditions: postemergence, 0 to 100 scale, 0 is no effect, 100 is complete control, approximately 10 days
# Outline: as §2
# [16] = test system: pigweed (Amaranthus retroflexus); assay: Test A postemergence, pigweed; conditions: postemergence, 0 to 100 scale, 0 is no effect, 100 is complete control, approximately 10 days
# Outline: as §2
# [17] = test system: galium (catchweed bedstraw, Galium aparine); assay: Test A postemergence, galium; conditions: postemergence, 0 to 100 scale, 0 is no effect, 100 is complete control, approximately 10 days
# Outline: as §2
# [18] = test system: barnyardgrass (Echinochloa crus-galli); assay: Test A postemergence, barnyardgrass; conditions: postemergence, 0 to 100 scale, 0 is no effect, 100 is complete control, approximately 10 days
# Outline: as §2
Compound,"Plant response rating, Rice (rice (Oryza sativa))","Plant response rating, Foxtail, Giant ([1]; 125 g ai/ha)","Plant response rating, Ragweed ([2]; 125 g ai/ha)","Plant response rating, Pigweed ([3]; 125 g ai/ha)","Plant response rating, Corn (corn (Zea mays); 125 g ai/ha)","Plant response rating, Ryegrass, Italian ([4]; 125 g ai/ha)","Plant response rating, Ryegrass, Italian ([5]; 125 g ai/ha)","Plant response rating, Ragweed ([6]; 125 g ai/ha)","Plant response rating, Kochia (kochia (Kochia scoparia) [7]; 125 g ai/ha)","Plant response rating, Barnyardgrass ([8]; 125 g ai/ha)","Plant response rating, Wheat ([9]; 125 g ai/ha)","Plant response rating, Kochia (kochia (Kochia scoparia) [10]; 125 g ai/ha)","Plant response rating, Foxtail, Giant ([11]; 125 g ai/ha)","Plant response rating, Sedge, Umbrella [12]","Plant response rating, Ducksalad [13]","Plant response rating, Barnyardgrass [14]","Plant response rating, Blackgrass ([15]; 125 g ai/ha)","Plant response rating, Pigweed ([16]; 125 g ai/ha)","Plant response rating, Galium ([17]; 125 g ai/ha)","Plant response rating, Barnyardgrass ([18]; 125 g ai/ha)",other results
N#CCCCOc1c(C#N)cccc1Oc1ncc(Cl)cn1 [Compound 22],0,90,30,100,20,0,0,10,90,20,20,90,10,0,0,0,0,80,50,0,"Plant response rating, Foxtail, Giant ([1]; 31 g ai/ha): 0; Plant response rating, Ragweed ([2]; 31 g ai/ha): 10; Plant response rating, Pigweed ([3]; 31 g ai/ha): 80; Plant response rating, Corn (corn (Zea mays); 31 g ai/ha): 10; Plant response rating, Ryegrass, Italian ([4]; 31 g ai/ha): 0; Plant response rating, Ryegrass, Italian ([5]; 31 g ai/ha): 0; Plant response rating, Ragweed ([6]; 31 g ai/ha): 0; Plant response rating, Kochia (kochia (Kochia scoparia) [7]; 31 g ai/ha): 70; Plant response rating, Barnyardgrass ([8]; 31 g ai/ha): 0; Plant response rating, Wheat ([9]; 31 g ai/ha): 0; Plant response rating, Kochia (kochia (Kochia scoparia) [10]; 31 g ai/ha): 80; Plant response rating, Foxtail, Giant ([11]; 31 g ai/ha): 0; Plant response rating, Blackgrass ([15]; 31 g ai/ha): 0; Plant response rating, Pigweed ([16]; 31 g ai/ha): 30; Plant response rating, Galium ([17]; 31 g ai/ha): 20; Plant response rating, Barnyardgrass ([18]; 31 g ai/ha): 0"
FC(F)C(F)(F)C(F)(F)C(F)(F)COc1c(Br)cccc1Oc1ncc(Cl)cn1 [Compound 53],15,100,0,80,10,20,20,40,20,60,10,100,30,80,90,0,30,100,90,40,"Plant response rating, Foxtail, Giant ([1]; 500 g ai/ha): 100; Plant response rating, Ragweed ([2]; 500 g ai/ha): 20; Plant response rating, Pigweed ([3]; 500 g ai/ha): 100; Plant response rating, Corn (corn (Zea mays); 500 g ai/ha): 30; Plant response rating, Ryegrass, Italian ([4]; 500 g ai/ha): 80; Plant response rating, Ryegrass, Italian ([5]; 500 g ai/ha): 70; Plant response rating, Ragweed ([6]; 500 g ai/ha): 80; Plant response rating, Kochia (kochia (Kochia scoparia) [7]; 500 g ai/ha): 90; Plant response rating, Barnyardgrass ([8]; 500 g ai/ha): 100; Plant response rating, Wheat ([9]; 500 g ai/ha): 30; Plant response rating, Kochia (kochia (Kochia scoparia) [10]; 500 g ai/ha): 100; Plant response rating, Foxtail, Giant ([11]; 500 g ai/ha): 100; Plant response rating, Blackgrass ([15]; 500 g ai/ha): 60; Plant response rating, Pigweed ([16]; 500 g ai/ha): 100; Plant response rating, Galium ([17]; 500 g ai/ha): 100; Plant response rating, Barnyardgrass ([18]; 500 g ai/ha): 100"
CCCCCOc1c(C#N)cccc1Oc1ncc(Cl)cn1 [Compound 51],0,100,0,50,20,0,10,10,40,40,0,70,40,95,80,0,20,40,70,30,"Plant response rating, Foxtail, Giant ([1]; 31 g ai/ha): 40; Plant response rating, Ragweed ([2]; 31 g ai/ha): 0; Plant response rating, Pigweed ([3]; 31 g ai/ha): 10; Plant response rating, Corn (corn (Zea mays); 31 g ai/ha): 10; Plant response rating, Ryegrass, Italian ([4]; 31 g ai/ha): 0; Plant response rating, Ryegrass, Italian ([5]; 31 g ai/ha): 0; Plant response rating, Ragweed ([6]; 31 g ai/ha): 0; Plant response rating, Kochia (kochia (Kochia scoparia) [7]; 31 g ai/ha): 0; Plant response rating, Barnyardgrass ([8]; 31 g ai/ha): 10; Plant response rating, Wheat ([9]; 31 g ai/ha): 0; Plant response rating, Kochia (kochia (Kochia scoparia) [10]; 31 g ai/ha): 40; Plant response rating, Foxtail, Giant ([11]; 31 g ai/ha): 10; Plant response rating, Blackgrass ([15]; 31 g ai/ha): 0; Plant response rating, Pigweed ([16]; 31 g ai/ha): 10; Plant response rating, Galium ([17]; 31 g ai/ha): 40; Plant response rating, Barnyardgrass ([18]; 31 g ai/ha): 10"
CC(C)CCOc1c(Br)cccc1Oc1ncc(Cl)cn1 [Compound 12],0,90,0,40,30,0,0,10,0,70,0,90,10,0,0,0,20,70,70,10,"Plant response rating, Foxtail, Giant ([1]; 500 g ai/ha): 100; Plant response rating, Ragweed ([2]; 500 g ai/ha): 0; Plant response rating, Pigweed ([3]; 500 g ai/ha): 100; Plant response rating, Corn (corn (Zea mays); 500 g ai/ha): 30; Plant response rating, Ryegrass, Italian ([4]; 500 g ai/ha): 40; Plant response rating, Ryegrass, Italian ([5]; 500 g ai/ha): 30; Plant response rating, Ragweed ([6]; 500 g ai/ha): 20; Plant response rating, Kochia (kochia (Kochia scoparia) [7]; 500 g ai/ha): 70; Plant response rating, Barnyardgrass ([8]; 500 g ai/ha): 100; Plant response rating, Wheat ([9]; 500 g ai/ha): 20; Plant response rating, Kochia (kochia (Kochia scoparia) [10]; 500 g ai/ha): 100; Plant response rating, Foxtail, Giant ([11]; 500 g ai/ha): 100; Plant response rating, Blackgrass ([15]; 500 g ai/ha): 60; Plant response rating, Pigweed ([16]; 500 g ai/ha): 100; Plant response rating, Galium ([17]; 500 g ai/ha): 100; Plant response rating, Barnyardgrass ([18]; 500 g ai/ha): 100"
Cl/C=C/COc1c(Cl)cccc1Oc1ncc(Cl)cn1 [Compound 48],20,80,0,60,20,10,0,10,80,60,10,100,60,70,70,20,10,80,30,50,"Plant response rating, Foxtail, Giant ([1]; 31 g ai/ha): 30; Plant response rating, Ragweed ([2]; 31 g ai/ha): 0; Plant response rating, Pigweed ([3]; 31 g ai/ha): 0; Plant response rating, Corn (corn (Zea mays); 31 g ai/ha): 10; Plant response rating, Ryegrass, Italian ([4]; 31 g ai/ha): 0; Plant response rating, Ryegrass, Italian ([5]; 31 g ai/ha): 0; Plant response rating, Ragweed ([6]; 31 g ai/ha): 0; Plant response rating, Kochia (kochia (Kochia scoparia) [7]; 31 g ai/ha): 0; Plant response rating, Barnyardgrass ([8]; 31 g ai/ha): 10; Plant response rating, Wheat ([9]; 31 g ai/ha): 0; Plant response rating, Kochia (kochia (Kochia scoparia) [10]; 31 g ai/ha): 60; Plant response rating, Foxtail, Giant ([11]; 31 g ai/ha): 20; Plant response rating, Blackgrass ([15]; 31 g ai/ha): 0; Plant response rating, Pigweed ([16]; 31 g ai/ha): 50; Plant response rating, Galium ([17]; 31 g ai/ha): 10; Plant response rating, Barnyardgrass ([18]; 31 g ai/ha): 10"
